# Experimental data: patent US7223780B2, “Triazole-derivatives as blood clotting enzyme factor Xa inhibitors” (Sanofi-Aventis Deutschland GmbH, priority 2003, dated 2007)
# Biological target: T1, human factor Xa (Homo sapiens, UniProt P00742)
# T1 construct: 25 μl human factor Xa (Enzyme Research Laboratories, Inc; South Bend, Ind.); purchased Enzyme Research Laboratories, Inc; South Bend, Ind
# Assay: Factor Xa chromogenic assay (substrate S-2765)
# Type: biochemical
# Conditions: inhibition constant for factor Xa, calculated from IC50 by Ki=IC50/{1+(substrate concentration/Km)}; 0.5 nM enzyme, 140 μM S-2765, 25° C.; read-out: Ki(FXa)
# Procedure: The ability of the compounds of the formula I or II to inhibit factor Xa or factor VIIa or other enzymes like thrombin, plasmin, or trypsin can be assessed by determining the concentration of the compound of the formula I or II that inhibits enzyme activity by 50%, i.e. the IC50 value, which was related to the inhibition constant Ki. Purified enzymes were used in chromogenic assays. The concentration of inhibitor that causes a 50% decrease in the rate of substrate hydrolysis was determined by linear regression after plotting the relative rates of hydrolysis (compared to the uninhibited control) versus the log of the concentration of the compound of formulae I, II, Ia, Ib, Ic, Id, IIa, IIb or IId. For calculating the inhibition constant Ki, the IC50 value was corrected for competition with substrate using the formula Ki=IC50/{1+(substrate concentration/Km)} wherein Km is the Michaelis-Menten constant (Chen and Prusoff, Biochem. Pharmacol. 22 (1973) 3099–3108; I. H. Segal, Enzyme Kinetics, 1975, John Wiley & Sons, New York, 100–125; which were incorporated herein by reference). a) Factor Xa Assay
# In the assay for determining the inhibition of factor Xa activity TBS-PEG buffer (50 mM Tris-HCl, pH 7.8, 200 mM NaCl, 0.05% (w/v) PEG-8000, 0.02% (w/v) NaN3) was used. The IC50 was determined by combining in appropriate wells of a Costar half-area microtiter plate 25 μl human factor Xa (Enzyme Research Laboratories, Inc.; South Bend, Ind.) in TBS-PEG; 40 μl 10% (v/v) DMSO in TBS-PEG (uninhibited control) or various concentrations of the compound to be tested diluted in 10% (v/v) DMSO in TBS-PEG; and substrate S-2765 (N((α)-benzyloxycarbonyl-D-Arg-Gly-L-Arg-p-nitroanilide; Kabi Pharmacia, Inc.; Franklin, Ohio) in TBS-PEG.
# The assay was performed by pre-incubating the compound of formula I or II plus enzyme for 10 min. Then the assay was initiated by adding substrate to obtain a final volume of 100 μl. The initial velocity of chromogenic substrate hydrolysis was measured by the change in absorbance at 405 nm using a Bio-tek Instruments kinetic plate reader (Ceres UV900HDi) at 25° C. during the linear portion of the time course (usually 1.5 min after addition of substrate). The enzyme concentration was 0.5 nM and substrate concentration was 140 μM.
# T1 sequence (P00742 235-488 limits assumed): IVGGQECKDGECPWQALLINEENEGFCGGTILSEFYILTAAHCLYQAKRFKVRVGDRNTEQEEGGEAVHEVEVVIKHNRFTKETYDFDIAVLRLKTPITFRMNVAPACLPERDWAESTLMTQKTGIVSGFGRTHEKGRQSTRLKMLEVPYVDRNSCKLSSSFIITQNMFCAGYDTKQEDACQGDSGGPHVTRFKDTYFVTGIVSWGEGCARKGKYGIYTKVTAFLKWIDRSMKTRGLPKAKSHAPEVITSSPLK
# T1 sequence (P00742 41-179 partner limits assumed): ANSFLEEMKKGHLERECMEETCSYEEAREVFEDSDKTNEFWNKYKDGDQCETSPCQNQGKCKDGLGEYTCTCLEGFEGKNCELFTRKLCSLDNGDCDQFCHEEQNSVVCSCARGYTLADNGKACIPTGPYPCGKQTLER
row,Ki [nM],Compound
1,54,"CC(C)N1CCC(NC(=O)c2nc(-n3cccc3)n(Cc3cc(-c4ccc(Cl)s4)on3)n2)CC1 [Example 1, 1-[5-(5-Chloro-thiophen-2-yl)-isoxazol-3-ylmethyl]-5-pyrrol-1-yl-1H-[1,2,4]triazole-3-carboxylic acid (1-isopropyl-piperidin-4-yl)-amide]"
2,80,"CC(C)N1CCC(NC(=O)c2nc(-c3ccccn3)n(Cc3cc(-c4ccc(Cl)s4)on3)n2)CC1 [Example 2, 1-[5-(5-Chloro-thiophen-2-yl)-isoxazol-3-ylmethyl]-5-pyridin-2-yl-1H-[1,2,4]triazole-3-carboxylic acid (1-isopropyl-piperidin-4-yl)-amide]"
3,100,"CC(C)N1CCC(NC(=O)c2nc(-c3ccccn3)nn2Cc2cc(-c3ccc(Cl)s3)on2)CC1 [Example 3, 2-[5-(5-Chloro-thiophen-2-yl)-isoxazol-3-ylmethyl]-5-pyridin-2-yl-2H-[1,2,4]triazole-3-carboxylic acid (1-isopropyl-piperidin-4-yl)-amide]"
4,330,"CC(C)N1CCC(NC(=O)c2nnn(Cc3cc(-c4ccc(Cl)s4)on3)n2)CC1 [Example 5, 2-[5-(5-Chloro-thiophen-2-yl)-isoxazol-3-ylmethyl]-2H-tetrazole-5-carboxylic acid (1-isopropyl-piperidin-4-yl)-amide]"
